In patent US9580418B2, “Bicyclic aromatic carboxamide compounds useful as Pim kinase inhibitors” (Incyte Corporation, priority 2014, dated 2017) one finds IC50 data, which are given here for 16 molecules.

SMILES strings stand for the structures.

In one experiment the test system is pBAD in KMS.12.BM cells. Briefly: Pim pBAD signaling assay in KMS.12.BM cells (Example B). The class given is cell-based. To be noted: Homo sapiens, 2.5 h incubation, pBAD ELISA. Here is the method:
KG-1A cells are purchased from ATCC (Manassas, Va.) and KMS.12.BM cells are purchased from NIBIO, JCRB cell bank (Tokyo, Japan) and maintained in the culture mediums recommended, RPMI, 10% FBS and IMDM 20% FBS (Mediatech, Manassas, Va.) respectively. To measure the pBAD inhibitory activity of the compounds, both cell lines are plated with the culture medium (1×10^6/well/100 μL for KG1A and 4×10^5 cells/well/in 100 μL for KMS12BM) into 96-well V bottom polypropylene plates (Matrix, Thermo Fisher, USA) and incubated 30 min. at 37° C. to normalize cell signaling from handling. Test compounds are added at an appropriate concentration range and further incubated for 2.5 h for KMS.12.BM cells and 4 h for KG1-A cells. Plates are centrifuged at 2000 RPM for 10 min. and supernatants aspirated. 100 μL lysis buffer with protease inhibitors (Cell Signaling Technologies, Danver, Mass., Sigma, St Louis Mo., EMD, USA) is added to the pellets, mixed well and set on ice for 30 min. Lysates are frozen overnight at −80° C. To measure the pBAD activity, a Cell Signaling ELISA kit (Cell Signaling Path Scan phosphor pBAD ELISA) is utilized. 50 μL of the lysate is tested per the ELISA protocol and the data analysis is performed by software on a SpectrMax5 plate reader (Molecular Devices, Sunnyvale, Calif.). IC50 determination is performed by fitting the curve of percent inhibition versus the log of the inhibitor concentration using the GraphPad Prism 5.0 software.
Background: In an ELISA, binding on a coated surface is turned into a signal by an enzyme label.

The next experiment has as its target Pim-2 (Homo sapiens (Human), UniProt Q9P1W9). Briefly: Pim-2 kinase assay (Pim enzyme assays, Example A). In kind it is biochemical. The settings on record: 1 mM ATP, CREBtide peptide substrate; read-out: PIM2 IC50. Here is the method:
Pim-2 kinase assay-20 μL reactions were run in white 384 well polystyrene plates dotted with 0.8 μL compound/DMSO in the assay buffer (50 mM Tris, pH 7.5, 0.01% Tween-20, 5 mM mgCl2, 0.01% BSA, 5 mM DTT), containing 0.05 μM Fluorescein-labeled CREBtide peptide substrate (Invitrogen PV3508), 1 mM ATP, and 1 nM enzyme (Invitrogen PV3649) for 2 h at 25° C. Reactions were stopped by addition of 10 μL TR-FRET Dilution Buffer (Invitrogen PV3574) with 30 mM EDTA and 1.5 nM LanthaScreen Tb-CREB pSer133 antibody (Invitrogen PV3566). After 30 min. incubation at room temperature, plates were read on a PHERAstar FS plate reader (BMG Labtech).

In another experiment the target is Pim-1 (Homo sapiens (Human), UniProt P11309). Briefly: Pim-1 kinase assay (Pim enzyme assays, Example A). To be noted: 1 mM ATP, BAD peptide substrate; read-out: PIM1 IC50. In kind it is biochemical. Here is the method: (§1) Pim-1 and Pim-3 kinase assays-20 μL reactions were run in white 384 well polystyrene plates dotted with 0.8 μL compound/DMSO in the assay buffer (50 mM Tris, pH 7.5, 0.01% Tween-20, 5 mM mgCl2, 0.01% BSA, 5 mM DTT), containing 0.05 μM Biotin-labeled BAD peptide substrate (AnaSpec 62269), 1 mM ATP, and 2.5 pM (Pim-1, Invitrogen PV3503) or 1.25 pM (Pim-3, Millipore 14-738) enzyme for 1 h at 25° C. Reactions were stopped by addition of 10 μL STOP Buffer (150 mM Tris, pH=7.5, 150 mM NaCl, 75 mM EDTA, 0.01% Tween-20, 0.3% BSA,) supplemented with Phospho-Bad (Ser112) Antibody (Cell Signaling 9291) diluted 666-fold, and Streptavidin donor beads (PerkinElmer 6760002) along with Protein-A acceptor beads (PerkinElmer 6760137) at 15 μg/mL each. Supplementation of the STOP buffer with beads and stopping the reactions were done under reduced light. Prior to the stopping reactions STOP buffer with beads was preincubated for 1 h in the dark at room temperature. After stopping the reactions, plates were incubated for 1 h in the dark at room temperature before reading on a PHERAstar FS plate reader (BMG Labtech) under reduced light.

The target of another experiment is Pim-3 (Homo sapiens (Human), UniProt Q86V86). The experiment is described as follows: Pim-3 kinase assay (Pim enzyme assays, Example A). The settings on record: 1 mM ATP, BAD peptide substrate; read-out: PIM3 IC50. The class given is biochemical. Here is the method: as §1

Pim-2, sequence (Q9P1W9 whole entry): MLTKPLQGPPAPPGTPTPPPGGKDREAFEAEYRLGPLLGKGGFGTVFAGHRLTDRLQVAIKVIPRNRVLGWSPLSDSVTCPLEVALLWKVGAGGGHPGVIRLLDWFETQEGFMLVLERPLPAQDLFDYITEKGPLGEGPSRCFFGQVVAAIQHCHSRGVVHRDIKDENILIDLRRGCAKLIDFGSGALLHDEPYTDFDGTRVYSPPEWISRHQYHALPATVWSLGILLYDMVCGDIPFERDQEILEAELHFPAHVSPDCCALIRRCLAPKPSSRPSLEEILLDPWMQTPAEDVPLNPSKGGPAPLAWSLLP
Pim-1, sequence (P11309 whole entry): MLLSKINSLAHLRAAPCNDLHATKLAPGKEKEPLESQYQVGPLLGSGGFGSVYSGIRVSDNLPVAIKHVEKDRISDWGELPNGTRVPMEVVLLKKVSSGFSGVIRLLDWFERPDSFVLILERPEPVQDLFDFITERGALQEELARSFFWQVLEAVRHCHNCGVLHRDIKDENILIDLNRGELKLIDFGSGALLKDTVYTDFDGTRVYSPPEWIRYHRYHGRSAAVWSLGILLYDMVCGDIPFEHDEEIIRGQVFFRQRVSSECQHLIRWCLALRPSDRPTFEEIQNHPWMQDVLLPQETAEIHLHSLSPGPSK

For `COc1ccc(-c2cnc3ccc(C(=O)Nc4cnccc4N4C[C@@H](N)[C@H](O)[C@@H](C5CC5)C4)nc3c2)cn1` [Example 36, N-{4-[(3R,4R,5S)-3-Amino-5-cyclopropyl-4-hydroxypiperidin-1-yl]pyridin-3-yl}-7-(6-methoxypyridin-3-yl)-1,5-naphthyridine-2-carboxamide], the IC50 (as a rule, the midpoint of a concentration-inhibition curve) in the experiment with pBAD in KMS.12.BM cells is at most 50 nM; on Pim-2, at most 100 nM; on Pim-1, at most 10 nM; on Pim-3, at most 10 nM.
In the case of `C[C@@H]1C[C@H](N)CN(c2ccncc2NC(=O)c2ccc3ccc(N4CCOCC4)cc3n2)C1` [Example 13, N-{4-[(3S,5R)-3-Amino-5-methylpiperidin-1-yl]pyridin-3-yl}-7-morpholin-4-ylquinoline-2-carboxamide], the IC50 in the experiment on pBAD in KMS.12.BM cells was at most 50 nM; at Pim-2, at most 100 nM; at Pim-1 it was at most 10 nM; on Pim-3, at most 10 nM.
`N#Cc1ccccc1-c1cnc2ccc(C(=O)Nc3cnccc3N3C[C@@H](N)C[C@@H](C(F)(F)F)C3)nc2c1` [Example 51, N-{4-[(3S,5R)-3-Amino-5-(trifluoromethyl)piperidin-1-yl]pyridin-3-yl}-7-(2-cyanophenyl)-1,5-naphthyridine-2-carboxamide]: the concentration for half-maximal inhibition (IC50) with pBAD in KMS.12.BM cells is at most 50 nM; at Pim-2, at most 100 nM; at Pim-1, at most 10 nM; at Pim-3, at most 10 nM.
As to `Cn1cc(-c2cnc3ccc(C(=O)Nc4cnccc4N4C[C@@H](N)[C@H](O)[C@@H](C5CC5)C4)nc3c2)cn1` [Example 39, N-{4-[(3R,4R,5S)-3-Amino-5-cyclopropyl-4-hydroxypiperidin-1-yl]pyridin-3-yl}-7-(1-methyl-1H-pyrazol-4-yl)-1,5-naphthyridine-2-carboxamide], the IC50 with pBAD in KMS.12.BM cells was 50 to 250 nM; on Pim-2, at most 100 nM; on Pim-1 it was at most 10 nM; on Pim-3, at most 10 nM.
On to `C[C@H]1CN(c2ccncc2NC(=O)c2ccc3ccc(N4CCC(C#N)CC4)cc3n2)C[C@@H](N)[C@@H]1O` [Example 16, N-{4-[(3R,4R,5S)-3-Amino-4-hydroxy-5-methylpiperidin-1-yl]pyridin-3-yl}-7-(4-cyanopiperidin-1-yl)quinoline-2-carboxamide], for which the IC50 in the experiment with pBAD in KMS.12.BM cells is at most 50 nM; at Pim-2 it was at most 100 nM; at Pim-1, at most 10 nM; at Pim-3 it was at most 10 nM.
Consider `C[C@H]1CN(c2ccncc2NC(=O)c2ccc3ccc(N4CCN(C)CC4)cc3n2)C[C@@H](N)[C@@H]1O` [Example 18, N-{4-[(3R,4R,5S)-3-Amino-4-hydroxy-5-methylpiperidin-1-yl]pyridin-3-yl}-7-(4-methylpiperazin-1-yl)quinoline-2-carboxamide], for which the half-inhibitory concentration (IC50) is 50 to 250 nM with pBAD in KMS.12.BM cells, 100 to 1000 nM at Pim-2, at most 10 nM at Pim-1 and at most 10 nM on Pim-3.
For the molecule `C[C@H]1CN(c2ccncc2NC(=O)c2ccc3ccc(-c4cnn(C)c4)cc3n2)C[C@@H](N)[C@@H]1O` [Example 43, N-{4-[(3R,4R,5S)-3-Amino-4-hydroxy-5-methylpiperidin-1-yl]pyridin-3-yl}-7-(1-methyl-1H-pyrazol-4-yl)quinoline-2-carboxamide], the IC50 in the experiment on pBAD in KMS.12.BM cells is at most 50 nM; on Pim-2, at most 100 nM; on Pim-1, at most 10 nM; on Pim-3 it was at most 10 nM.
Regarding `COc1ccc(-c2cnc3ccc(C(=O)Nc4cnccc4N4C[C@@H](N)[C@H](O)[C@@H](C)C4)nc3c2)cn1` [Example 7, N-{4-[(3R,4R,5S)-3-Amino-4-hydroxy-5-methylpiperidin-1-yl]pyridin-3-yl}-7-(6-methoxypyridin-3-yl)-1,5-naphthyridine-2-carboxamide], the concentration for half-maximal inhibition (IC50) in the experiment on pBAD in KMS.12.BM cells is at most 50 nM; on Pim-2, at most 100 nM; at Pim-1, at most 10 nM; at Pim-3 it was at most 10 nM.
Take `CCn1cc(-c2cnc3ccc(C(=O)Nc4cnccc4N4C[C@@H](N)[C@H](O)[C@@H](C5CC5)C4)nc3c2)cn1` [Example 38, N-{4-[(3R,4R,5S)-3-Amino-5-cyclopropyl-4-hydroxypiperidin-1-yl]pyridin-3-yl}-7-(1-ethyl-1H-pyrazol-4-yl)-1,5-naphthyridine-2-carboxamide]: the 50% inhibitory concentration (IC50) was at most 50 nM with pBAD in KMS.12.BM cells, at most 100 nM at Pim-2, at most 10 nM at Pim-1 and at most 10 nM on Pim-3.
For the molecule `C[C@@H]1C[C@H](N)CN(c2ccncc2NC(=O)c2ccc3ccc(-c4ccccc4C#N)cc3n2)C1` [Example 49, N-{4-[(3S,5R)-3-Amino-5-methylpiperidin-1-yl]pyridin-3-yl}-7-(2-cyanophenyl)quinoline-2-carboxamide], the IC50 was at most 50 nM with pBAD in KMS.12.BM cells, at most 100 nM at Pim-2, at most 10 nM at Pim-1 and at most 10 nM on Pim-3.
In the case of `C[C@@H]1C[C@H](N)CN(c2ccncc2NC(=O)c2ccc3ccc(N4CCC(N5CCOCC5)CC4)cc3n2)C1` [Example 27, N-{4-[(3S,5R)-3-Amino-5-methylpiperidin-1-yl]pyridin-3-yl}-7-(4-morpholin-4-ylpiperidin-1-yl)quinoline-2-carboxamide], the IC50 in the experiment with pBAD in KMS.12.BM cells is 50 to 250 nM; at Pim-2, 100 to 1000 nM; at Pim-1, at most 10 nM; at Pim-3, at most 10 nM.
On to `CCN1CCN(c2ccc3ccc(C(=O)Nc4cnccc4N4C[C@@H](N)[C@H](O)[C@@H](C)C4)nc3c2)CC1=O` [Example 22, N-{4-[(3R,4R,5S)-3-Amino-4-hydroxy-5-methylpiperidin-1-yl]pyridin-3-yl}-7-(4-ethyl-3-oxopiperazin-1-yl)quinoline-2-carboxamide], for which the IC50 is at most 50 nM in the experiment with pBAD in KMS.12.BM cells, at most 100 nM at Pim-2, at most 10 nM on Pim-1 and at most 10 nM at Pim-3.
In the case of `CC(C)c1cnc2ccc(C(=O)Nc3cnccc3N3C[C@@H](N)[C@H](O)[C@@H](C)C3)nc2c1` [Example 6], the half-maximal inhibitory concentration (IC50) with pBAD in KMS.12.BM cells is at most 50 nM; on Pim-2 it was at most 100 nM; at Pim-1 it was at most 10 nM; on Pim-3 it was at most 10 nM.
Consider `C[C@@H]1C[C@H](N)CN(c2ccncc2NC(=O)c2ccc3ccc(N4CCN(C)CC4)cc3n2)C1` [Example 19, N-{4-[(3S,5R)-3-Amino-5-methylpiperidin-1-yl]pyridin-3-yl}-7-(4-methylpiperazin-1-yl)quinoline-2-carboxamide], for which the half-maximal inhibitory concentration (IC50) in the experiment with pBAD in KMS.12.BM cells was 250 to 2000 nM; on Pim-2 it was 100 to 1000 nM; on Pim-1, at most 10 nM; on Pim-3 it was at most 10 nM.
`C[C@H]1CN(c2ccncc2NC(=O)c2ccc3ccc(-c4cccnc4)cc3n2)C[C@@H](N)[C@@H]1O` [Example 47, N-(4-((3R,4R,5S)-3-Amino-4-hydroxy-5-methylpiperidin-1-yl)pyridin-3-yl)-7-(pyridin-3-yl)quinoline-2-carboxamide]: the IC50 in the experiment on pBAD in KMS.12.BM cells was at most 50 nM; on Pim-2, at most 100 nM; at Pim-1, at most 10 nM; on Pim-3, at most 10 nM.
Regarding `C[C@H]1CN(c2ccncc2NC(=O)c2ccc3ccc(N4CCCC4)cc3n2)C[C@@H](N)[C@@H]1O` [Example 30, N-{4-[(3R,4R,5S)-3-Amino-4-hydroxy-5-methylpiperidin-1-yl]pyridin-3-yl}-7-pyrrolidin-1-ylquinoline-2-carboxamide], the IC50 in the experiment with pBAD in KMS.12.BM cells is 50 to 250 nM; on Pim-2, at most 100 nM; at Pim-1, at most 10 nM; at Pim-3 it was at most 10 nM.
